System: UACC-62
Assay: Growth inhibition of human UACC62 cells assessed as cell growth at 10^-5 M after 48 hrs by SRB assay
Type: functional
Details: UACC-62, 48 h, read-out: Activity

SMILES: C/C(=N\O)c1ccc(OCC(=O)Nc2ccc(C(=O)/C=C/c3ccc(Cl)cc3)cc2)cc1
- growth at 10 µM: 37.5%
